Like-named read-outs stand apart in the source and are kept apart here.
How the values were obtained:
[1] = test system: Huh-7 cells containing the self-replicating, subgenomic HCV replicon; assay: HCV replicon assay (luciferase reporter); format: cell-based; conditions: Hepatitis C virus
[2] = target: human mitochondrial RNA polymerase (Homo sapiens, UniProt O00411); assay: DdRp assay: incorporation of nucleotides by human mitochondrial RNA polymerase (HMRP); conditions: 100 μM of each NTP, single turnover, 30° C., 1 minute; template for GTP analogs
Chain of human mitochondrial RNA polymerase (O00411 42-1230): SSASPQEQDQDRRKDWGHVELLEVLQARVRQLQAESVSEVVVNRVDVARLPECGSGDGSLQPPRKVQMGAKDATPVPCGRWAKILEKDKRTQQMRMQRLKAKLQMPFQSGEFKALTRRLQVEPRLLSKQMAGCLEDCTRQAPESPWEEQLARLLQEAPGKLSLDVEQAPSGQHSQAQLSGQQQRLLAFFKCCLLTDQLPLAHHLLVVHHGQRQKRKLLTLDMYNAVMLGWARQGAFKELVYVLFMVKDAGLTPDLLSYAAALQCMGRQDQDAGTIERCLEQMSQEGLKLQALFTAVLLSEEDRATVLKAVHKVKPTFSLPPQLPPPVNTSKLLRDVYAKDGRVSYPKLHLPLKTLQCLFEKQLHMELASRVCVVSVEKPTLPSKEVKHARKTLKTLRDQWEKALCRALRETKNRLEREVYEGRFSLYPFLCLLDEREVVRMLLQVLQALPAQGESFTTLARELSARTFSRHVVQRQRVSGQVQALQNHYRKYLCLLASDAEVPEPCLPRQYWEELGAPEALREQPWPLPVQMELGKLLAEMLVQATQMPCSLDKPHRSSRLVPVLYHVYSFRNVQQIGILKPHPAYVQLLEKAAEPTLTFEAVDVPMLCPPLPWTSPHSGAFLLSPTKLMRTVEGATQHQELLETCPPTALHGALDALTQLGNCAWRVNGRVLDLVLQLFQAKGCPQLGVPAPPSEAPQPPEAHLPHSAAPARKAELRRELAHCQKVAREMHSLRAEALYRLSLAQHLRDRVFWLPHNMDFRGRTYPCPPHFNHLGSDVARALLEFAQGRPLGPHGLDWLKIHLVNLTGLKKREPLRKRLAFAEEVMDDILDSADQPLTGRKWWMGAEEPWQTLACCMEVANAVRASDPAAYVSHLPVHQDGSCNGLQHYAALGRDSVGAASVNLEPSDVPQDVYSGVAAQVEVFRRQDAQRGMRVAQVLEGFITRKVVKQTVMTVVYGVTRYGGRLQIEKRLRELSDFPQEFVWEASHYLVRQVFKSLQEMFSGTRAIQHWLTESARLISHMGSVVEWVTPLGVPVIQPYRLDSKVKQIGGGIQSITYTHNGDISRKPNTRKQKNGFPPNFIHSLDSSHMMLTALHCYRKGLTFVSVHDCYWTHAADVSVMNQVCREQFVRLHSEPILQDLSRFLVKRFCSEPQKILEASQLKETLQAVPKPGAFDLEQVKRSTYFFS

[3] = test system: mitochondrial protein synthesis (COX I relative to SDH A) in HepG2 cells
[4] = target: NS5B570-Con1 (Delta-21) (Hepatitis C virus genotype 1b, UniProt Q9WMX2); assay: biochemical; design: species or system HCV Con-1 strain

Compound | EC50 ([1]; Huh-7, 72 h) [µM] | other results
CCOc1nc(N)nc2c1ncn2[C@@H]1O[C@H](COP(=S)(N[C@@H](C)C(=O)OC(C)C)Oc2ccccc2)[C@@H](F)[C@@]1(C)O (stereo partly shown) [Compound 11] | 10 to 100 | 
C[C@H](NP(=O)(OC[C@H]1O[C@@H](n2cnc3c(=O)[nH]c(N)nc32)[C@](C)(O)[C@@H]1F)Oc1ccccc1)C(=O)OC1CCCCC1 (stereo partly drawn) [Compound 9, (2S)-cyclohexyl 2-(((((2R,3R,4S,5R)-5-(2-amino-6-oxo-1H-purin-9(6H)-yl)-3-fluoro-4-hydroxy-4-methyltetrahydrofuran-2-yl)methoxy)(phenoxy)phosphoryl)amino)propanoate] | 1 to 10 | 
C[C@H](NP(=O)(OC[C@H]1O[C@@H](n2cnc3c(=O)[nH]c(N)nc32)[C@](C)(O)[C@@H]1F)Oc1ccccc1Cl)C(=O)OCC(C)(C)C (stereo partly drawn) [Compound 7, (2S)-neopentyl 2-(((((2R,3R,4S,5R)-5-(2-amino-6-oxo-1H-purin-9(6H)-yl)-3-fluoro-4-hydroxy-4-methyltetrahydrofuran-2-yl)methoxy)(2-chlorophenoxy)phosphoryl)amino)propanoate] | 10 to 100 | 
CCOc1nc(N)nc2c1ncn2[C@@H]1O[C@H](COP(=S)(N[C@@H](C)C(=O)OCC(C)(C)C)Oc2ccccc2)[C@@H](F)[C@@]1(C)O (stereo partly shown) [Compound 13] | 1 to 10 | 
Nc1ncnc2c1ncn2[C@@H]1O[C@H](COP(=O)(O)OP(=O)(O)OP(=O)(O)O)[C@@H](O)[C@H]1O [ATP] |  | incorporation by human mitochondrial RNA polymerase (product band, FIG. 10) [2]: poor substrate for incorporation
C[C@@]1(O)[C@H](F)[C@@H](CO)O[C@H]1n1cnc2c(=O)[nH]c(N)nc21 [Compound 6, 2-amino-9-((2R,3S,4R,5R)-4-fluoro-3-hydroxy-5-(hydroxymethyl)-3-methyltetrahydrofuran-2-yl)-1H-purin-6(9H)-one] |  | EC50 ([1]; Huh-7, HCV replicon cells, 72 h, Bright-Glo luciferase, read-out: EC50): 10 to 100 µM
Nc1ccn([C@H]2CC[C@@H](CO)O2)c(=O)n1 [ddC] |  | inhibition of mitochondrial protein synthesis (FIGS. 11A-B) [3]: strongly inhibit mitochondrial protein synthesis
C[C@@]1(O)[C@H](F)[C@@H](COP(=O)(O)OP(=O)(O)OP(=O)(O)O)O[C@H]1n1cnc2c(=O)[nH]c(N)nc21 [Compound 15] |  | IC50 [4]: < 1 µM
C[C@H](NP(=O)(OC[C@H]1O[C@@H](n2cnc3c(=O)[nH]c(N)nc32)[C@](C)(O)[C@@H]1F)Oc1ccc(F)c(Cl)c1)C(=O)OC1CCCCC1 (stereo partly drawn) [Compound 8, (2S)-cyclohexyl 2-(((((2R,3R,4S,5R)-5-(2-amino-6-oxo-1H-purin-9(6H)-yl)-3-fluoro-4-hydroxy-4-methyltetrahydrofuran-2-yl)methoxy)(3-chloro-4-fluorophenoxy)phosphoryl)amino)propanoate] | 10 to 100 | 
CCOc1nc(N)nc2c1ncn2[C@@H]1O[C@H](COP(=O)(N[C@@H](C)C(=O)OC2CCCCC2)Oc2ccccc2)[C@@H](F)[C@@]1(C)O (stereo partly drawn) [Compound 5, (2S)-cyclohexyl 2-(((((2R,3R,4S,5R)-5-(2-amino-6-ethoxy-1H-purin-9(6H)-yl)-3-fluoro-4-hydroxy-4-methyltetrahydrofuran-2-yl)methoxy)(phenoxy)phosphoryl)amino)propanoate] | < 1 | 
CCOc1nc(N)nc2c1ncn2[C@@H]1O[C@H](COP(=O)(N[C@@H](C)C(=O)OC(C)C)Oc2ccccc2)[C@@H](F)[C@@]1(C)O (stereo partly shown) [Compound 10] | < 1 | 
CCOc1nc(N)nc2c1ncn2[C@@H]1O[C@H](COP(=O)(N[C@@H](C)C(=O)OC2CCCCC2)Oc2ccc(F)c(Cl)c2)[C@@H](F)[C@@]1(C)O (stereo partly drawn) [Compound 3, (2S)-cyclohexyl 2-(((((2R,3R,4S,5R)-5-(2-amino-6-ethoxy-1H-purin-9(6H)-yl)-3-fluoro-4-hydroxy-4-methyltetrahydrofuran-2-yl)methoxy)(3-chloro-4-fluorophenoxy)phosphoryl)amino)propanoate] | < 1 | 
CCOc1nc(N)nc2c1ncn2[C@@H]1O[C@H](COP(=O)(N[C@@H](C)C(=O)OCC(C)(C)C)Oc2ccccc2Cl)[C@@H](F)[C@@]1(C)O (stereo partly drawn) [Compound 2, (2S)-neopentyl 2-(((((2R,3R,4S,5R)-5-(2-amino-6-ethoxy-1H-purin-9(6H)-yl)-3-fluoro-4-hydroxy-4-methyltetrahydrofuran-2-yl)methoxy)(2-chlorophenoxy)phosphoryl)amino)propanoate] | < 1 | 
Cc1cn([C@H]2C=C[C@@H](CO)O2)c(=O)[nH]c1=O [d4T] |  | inhibition of mitochondrial protein synthesis (FIGS. 11A-B) [3]: found not to inhibit mitochondrial protein synthesis
CCOc1nc(N)nc2c1ncn2[C@@H]1O[C@H](COP(=S)(N[C@@H](C)C(=O)OC2CCCCC2)Oc2ccccc2)[C@@H](F)[C@@]1(C)O (stereo partly shown) [Compound 12] | 1 to 10 | 
CCOc1nc(N)nc2c1ncn2[C@@H]1O[C@H](COP(=O)(N[C@@H](C)C(=O)OCC(C)(C)C)Oc2ccccc2)[C@@H](F)[C@@]1(C)O (stereo partly drawn) [Compound 4, (2S)-neopentyl 2-(((((2R,3R,4S,5R)-5-(2-amino-6-ethoxy-1H-purin-9(6H)-yl)-3-fluoro-4-hydroxy-4-methyltetrahydrofuran-2-yl)methoxy)(phenoxy)phosphoryl)amino)propanoate] | < 1 | 
